From ChEMBL document CHEMBL4043305, “Structure-Activity Relationship Study of Cyclic Pentapeptide Ligands for Atypical Chemokine Receptor 3 (ACKR3)” (J Med Chem, 2018) come the findings set out here.

As a reminder, the pIC50 is the IC50 on a negative log10 scale, so that one unit is a factor of ten. Low values mean a high IC50, high ones a low IC50. For orientation: pEC50 means −log10 of the EC50, conventionally taken in molar units.

pEC50, pIC50: −log10 of the molar value. Calls of active or inactive are those of the source. The rule behind the calls is not given here. Where only a bound is given, the exact number is not on record here.

Holding throughout (type): cell-based
Assay [1] deals with C-X-C chemokine receptor type 4 (Homo sapiens, UniProt P61073). Nature of the assay: Displacement of [125I]SDF-1alpha from CXCR4 (unknown origin) expressed in HEK293 cells after 1 hr by scintillation counting method. (In general: Loss of bound radioactivity is the signal in a displacement assay; it reports binding, not function.)
Assay [2] has as its target T1, Atypical chemokine receptor 3 (Homo sapiens, UniProt P25106). The experiment in a line: Displacement of [125I]SDF-1alpha from ACKR3 (unknown origin) expressed in CHO cells at 30 uM after 1 hr by scintillation counting method.
Assay [3] concerns the target Atypical chemokine receptor 3 (Homo sapiens, UniProt P25106, S198R). The experiment in a line: Activation of YFP-tagged ACKR3 S198R mutant (unknown origin) expressed in HEK293E cells assessed as induction of Rluc-tagged beta-arrestin-2 recruitment after 30 mins by BRET assay. As to conditions: for pEC50: read-out: EC50. (In general: Arrestin recruitment assays detect the binding of arrestin to an activated receptor.)

The target of assay [4] is T1, Atypical chemokine receptor 3. Nature of the assay: Displacement of [125I]SDF-1alpha from ACKR3 (unknown origin) expressed in CHO cells after 1 hr by scintillation counting method.
The target of assay [5] is Atypical chemokine receptor 3 (Homo sapiens, UniProt P25106, D179N). Nature of the assay: Activation of YFP-tagged ACKR3 D179N mutant (unknown origin) expressed in HEK293E cells assessed as induction of Rluc-tagged beta-arrestin-2 recruitment after 30 mins by BRET assay. The conditions noted are these: for pEC50: read-out: EC50; for EC50: read-out: pEC50 (converted).
Assay [6] has as its target Atypical chemokine receptor 3 (Homo sapiens, UniProt P25106, D275N). The experiment in a line: Activation of YFP-tagged ACKR3 D275N mutant (unknown origin) expressed in HEK293E cells assessed as induction of Rluc-tagged beta-arrestin-2 recruitment after 30 mins by BRET assay. The conditions noted are these: for pEC50: read-out: EC50.
Assay [7] has as its target T1, Atypical chemokine receptor 3. Nature of the assay: Activation of YFP-tagged ACKR3 (unknown origin) expressed in HEK293E cells assessed as induction of Rluc-tagged beta-arrestin-2 recruitment after 30 mins by BRET assay.

Sequence of Atypical chemokine receptor 3 (Homo sapiens, UniProt P25106, D179N) (P25106 whole entry D179N): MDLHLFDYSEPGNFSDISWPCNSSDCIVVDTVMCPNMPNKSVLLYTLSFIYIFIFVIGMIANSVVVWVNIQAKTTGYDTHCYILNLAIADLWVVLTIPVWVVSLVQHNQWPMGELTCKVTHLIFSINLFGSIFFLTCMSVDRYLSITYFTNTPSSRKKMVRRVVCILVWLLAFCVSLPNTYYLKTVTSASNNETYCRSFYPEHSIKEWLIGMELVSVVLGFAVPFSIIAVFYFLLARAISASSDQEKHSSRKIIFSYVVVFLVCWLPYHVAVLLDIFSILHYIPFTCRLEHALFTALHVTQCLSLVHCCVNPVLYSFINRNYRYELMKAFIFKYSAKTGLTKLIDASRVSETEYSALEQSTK
T1 sequence (P25106 whole entry): as the sequence (P25106 whole entry D179N) above, with N179D counted along it
Sequence of Atypical chemokine receptor 3 (Homo sapiens, UniProt P25106, S198R) (P25106 whole entry S198R): as the sequence (P25106 whole entry D179N) above, with N179D, S198R counted along it
Sequence of Atypical chemokine receptor 3 (Homo sapiens, UniProt P25106, D275N) (P25106 whole entry D275N): as the sequence (P25106 whole entry D179N) above, with N179D, D275N counted along it
Sequence of C-X-C chemokine receptor type 4 (P61073 whole entry): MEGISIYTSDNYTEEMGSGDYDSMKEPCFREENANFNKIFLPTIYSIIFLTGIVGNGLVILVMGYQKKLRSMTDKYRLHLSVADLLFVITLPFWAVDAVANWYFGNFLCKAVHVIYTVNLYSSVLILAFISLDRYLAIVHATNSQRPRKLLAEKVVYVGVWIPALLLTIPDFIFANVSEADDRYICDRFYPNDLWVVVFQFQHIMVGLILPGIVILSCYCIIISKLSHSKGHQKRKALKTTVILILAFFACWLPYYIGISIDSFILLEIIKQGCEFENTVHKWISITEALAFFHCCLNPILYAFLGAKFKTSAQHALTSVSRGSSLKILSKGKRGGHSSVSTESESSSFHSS

In assay [1], `CN1C(=O)[C@H](CCCNC(=N)N)NC(=O)[C@@H](Cc2ccc(O)cc2)NC(=O)[C@@H]2CCCN2C(=O)[C@H](Cc2ccc3ccccc3c2)NC(=O)[C@@H]1CCC(=O)O` had a pIC50 of less than 4.52. Further, in assay [2], the inhibition entry is “inactive”.
`CN1C(=O)[C@H](CCC(=O)O)NC(=O)[C@@H](Cc2ccc(O)cc2)NC(=O)[C@@H]2CCCN2C(=O)[C@H](Cc2ccc3ccccc3c2)NC(=O)[C@@H]1CCCNC(=N)N`: the pIC50 in assay [1] is less than 4.52. For the same molecule, the inhibition result in assay [2] is “inactive”.
In the case of `CN1C(=O)[C@H](CCCNC(=N)N)NC(=O)[C@@H](Cc2ccc(O)cc2)NC(=O)[C@@H]2CCCN2C(=O)[C@H](Cc2ccc3ccccc3c2)NC(=O)[C@@H]1CCCNC(=N)N`, the pEC50 in assay [3] was 6.57; in assay [5] it was 5.66; in assay [6], 6.44; in assay [7], 7.04. The EC50 in assay [3] (read-out: pEC50 (converted)) is 316 nM; in assay [5] it was 2510 nM. In addition, the pIC50 in assay [4] is 6.07; in assay [1], less than 4.52.
As for `CN1C(=O)[C@H](Cc2ccc3ccccc3c2)NC(=O)[C@H](CCCNC(N)=O)N(C)C(=O)[C@H](CCCNC(=N)N)NC(=O)[C@@H](Cc2ccc(O)cc2)NC(=O)[C@H]1CS`, the negative-log IC50 (pIC50) in assay [4] is 5.34; in assay [1], 4.68.
For `CN1C(=O)[C@H](Cc2c[nH]c3ccccc23)NC(=O)[C@@H](Cc2ccc(O)cc2)NC(=O)[C@@H]2CCCN2C(=O)[C@H](Cc2ccc3ccccc3c2)NC(=O)[C@@H]1CCCNC(=N)N` the same measures were 4.62 to 5.70 and less than 4.52.
Molecule `CN1C(=O)[C@H](CC(N)=O)NC(=O)[C@@H](Cc2ccc(O)cc2)NC(=O)[C@@H]2CCCN2C(=O)[C@H](Cc2ccc3ccccc3c2)NC(=O)[C@@H]1CCCNC(=N)N` had a pIC50 in assay [1] of less than 4.52. Moreover, in assay [2], the inhibition entry was “inactive”.
Consider `CN1C(=O)[C@H](CCCNC(=N)N)NC(=O)[C@@H](Cc2ccc(Cl)cc2)NC(=O)[C@@H]2CCCN2C(=O)[C@H](Cc2ccc3ccccc3c2)NC(=O)[C@@H]1CCCNC(N)=O`, for which the pIC50 in assay [4] was 6.10; in assay [1], less than 4.52.
For `CN1C(=O)[C@H](CCCCNC(=N)N)NC(=O)[C@@H](Cc2ccc(O)cc2)NC(=O)[C@@H]2CCCN2C(=O)[C@H](Cc2ccc3ccccc3c2)NC(=O)[C@@H]1CCCNC(=N)N` the same measures were 6.08 and less than 4.52.
For `CSCC[C@H]1C(=O)N[C@H](Cc2ccc(O)cc2)C(=O)N[C@@H](CCCNC(=N)N)C(=O)N(C)[C@@H](CCCNC(N)=O)C(=O)N[C@@H](Cc2ccc3ccccc3c2)C(=O)N1C`, the pIC50 in assay [4] was 5.74; in assay [1] it was less than 4.52.
Regarding `CN1C(=O)[C@H](CCCNC(=N)N)NC(=O)[C@@H](Cc2ccc(F)cc2)NC(=O)[C@@H]2CCCN2C(=O)[C@H](Cc2ccc3ccccc3c2)NC(=O)[C@@H]1CCCNC(N)=O`, the pIC50 in assay [4] is 5.92; in assay [1], less than 4.52.
Take `CC(C)C[C@H]1C(=O)N[C@H](Cc2ccc(O)cc2)C(=O)N[C@@H](CCCNC(=N)N)C(=O)N(C)[C@@H](CCCNC(N)=O)C(=O)N[C@@H](Cc2ccc3ccccc3c2)C(=O)N1C`: the values for the pIC50 in assay [4] and in assay [1] were 5.72 and less than 4.52, respectively.
Take `CN1C(=O)[C@H](CCCNC(=N)N)NC(=O)[C@@H](Cc2ccc(O)cc2)NC(=O)[C@H](Cc2c[nH]c3ccccc23)NC(=O)[C@H](Cc2ccc3ccccc3c2)NC(=O)[C@@H]1CCCNC(N)=O`: the values for the pIC50 in assay [4] and in assay [1] were 6.07 and less than 4.52, respectively.
With `CN1C(=O)[C@H](CCCNC(=N)N)NC(=O)[C@@H](Cc2ccc3ccccc3c2)NC(=O)[C@@H]2CCCN2C(=O)[C@H](Cc2ccc3ccccc3c2)NC(=O)[C@@H]1CCCNC(N)=O`, the pIC50 in assay [4] is 6.16; in assay [1], less than 4.52.
Consider `CN1C(=O)[C@H](CCCNC(=N)N)NC(=O)[C@@H](Cc2ccc(O)cc2)NC(=O)[C@H](Cc2cccc3ccccc23)N(C)C(=O)[C@H](Cc2ccc3ccccc3c2)NC(=O)[C@@H]1CCCNC(N)=O`, for which the negative logarithm of the EC50 (pEC50) in assay [3] was 5.72; in assay [5] it was 6.96; in assay [6], 5.26; in assay [7], 6.31. Further, the pIC50 is 6.77 in assay [4] and 4.77 in assay [1]. In addition, the EC50 in assay [5] is 126 nM; in assay [6] (read-out: pEC50 (converted)), 6310 nM.
In the case of `CC(C)[C@@H]1NC(=O)[C@@H](Cc2ccc(O)cc2)NC(=O)[C@@H]2CCCN2C(=O)[C@H](Cc2ccc3ccccc3c2)NC(=O)[C@H](CCCNC(=N)N)N(C)C1=O`, the figures for the negative logarithm of the IC50 (pIC50) in assay [4] and in assay [1] were 4.62 to 5.70 and less than 4.52, respectively.
`CN1C(=O)[C@H](CCCNC(=N)N)NC(=O)[C@@H](Cc2ccc(O)cc2)NC(=O)[C@H](Cc2csc3ccccc23)N(C)C(=O)[C@H](Cc2ccc3ccccc3c2)NC(=O)[C@@H]1CCCNC(N)=O`: the results for the pIC50 in assay [4] and in assay [1] were 6.00 and less than 4.52, respectively.
In assay [1], `CN1C(=O)[C@H](CC(=O)O)NC(=O)[C@@H](Cc2ccc(O)cc2)NC(=O)[C@@H]2CCCN2C(=O)[C@H](Cc2ccc3ccccc3c2)NC(=O)[C@@H]1CCCNC(=N)N` showed a negative-log IC50 (pIC50) of less than 4.52. Also, the inhibition entry in assay [2] is “inactive”.
Take `CN1C(=O)[C@H](CCCNC(=N)N)NC(=O)[C@@H](Cc2ccc(O)cc2)NC(=O)[C@@H]2CCCN2C(=O)[C@H](Cc2ccc3ccccc3c2)NC(=O)[C@@H]1CC(=O)O`: in assay [1], the pIC50 was less than 4.52. Besides, the inhibition entry in assay [2] is “inactive”.
Regarding `CN1C(=O)[C@H](CCCNC(=N)N)NC(=O)[C@@H](Cc2ccc(O)cc2)NC(=O)[C@@H]2CCCN2C(=O)[C@H](Cc2ccc3ccccc3c2)NC(=O)[C@@H]1CCCN`, the negative logarithm of the IC50 (pIC50) in assay [4] is 5.89; in assay [1], less than 4.52.
Take `CC[C@H](C)[C@@H]1NC(=O)[C@@H](Cc2ccc(O)cc2)NC(=O)[C@@H]2CCCN2C(=O)[C@H](Cc2ccc3ccccc3c2)NC(=O)[C@H](CCCNC(=N)N)N(C)C1=O`: the pIC50 in assay [4] is 4.62 to 5.70; in assay [1], less than 4.52.
For `CN1C(=O)[C@H](CCCNC(=N)N)NC(=O)[C@@H](Cc2ccccc2F)NC(=O)[C@@H]2CCCN2C(=O)[C@H](Cc2ccc3ccccc3c2)NC(=O)[C@@H]1CCCNC(N)=O`, the pIC50 in assay [4] was 6.39; in assay [1] it was less than 4.52.
Consider `CN1C(=O)[C@H](CCNC(=N)N)NC(=O)[C@@H](Cc2ccc(O)cc2)NC(=O)[C@@H]2CCCN2C(=O)[C@H](Cc2ccc3ccccc3c2)NC(=O)[C@@H]1CCCNC(=N)N`, for which the pIC50 is 5.59 in assay [4] and less than 4.52 in assay [1].
